# Test system: SREBP pathway
# Experiment: SREBP luciferase reporter gene system (SRE-luciferase assay)
# Assay type: cell-based, human
# Settings: Huh-7/SRE-luc cells, sterol-deficient medium, 0.01-10 µM
# In short: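 Readout was SRE-driven luciferase normalised to GFP fluorescence in lysates of stably transfected Huh-7/SRE-luc hepatoma cells. Compounds (0.01, 0.03, 0.1, 0.3, 1.0, 3.0, 10 µM; DMSO control) were applied for 16 h in sterol-depleted medium with 2 µM lovastatin and 10 µM mevalonate; IC50 from variable-slope fit.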
SMILES,"IC50 (Homo sapiens, Huh-7, 16 h)",IC50 (16 hours)
"C[C@H](CCCC(O)C1CC2CCC1C2)[C@H]1CC[C@H]2[C@H]3[C@H](CC[C@]12C)[C@@]1(C)CC[C@H](O)[C@H](O)[C@@H]1CC3(F)F (stereo partly drawn) [Compound 213, (1R,3aS,3bS,5aR,6R,7 S,9aR,9bS,11aR)-1-[(2R)-6-(Bicyclo[2.2.1]heptan-2-yl)-6-hydroxyhexan-2-yl]-4,4-difluoro-9a,11a-dimethylhexadecahyd ro-1H-cyclopenta[1,2-a]phenanthrene-6,7-diol]",0.569 µM,–
"C[C@H](CCCC(O)c1cncc2c1cnn2C)[C@H]1CC[C@H]2[C@H]3[C@H](CC[C@]12C)[C@@]1(C)CC[C@H](O)[C@H](O)[C@@H]1CC3(F)F (stereo partly drawn) [Compound 275, (1R,3aS,3bS,5aR,6R,7 S,9aR,9bS,11aR)-4,4-Difluoro-1-[(2R)-6-hydroxy-6-(1-methylpyrazolo[3,4-c]pyridin-4-yl)hexan-2-yl]-9a,11a-dimethylhexadecahyd ro-1H-cyclopenta[1,2-a]phenanthrene-6,7-diol]",0.26 µM,–
"C[C@H](CCCC(O)c1cccc2[nH]ncc12)[C@H]1CC[C@H]2[C@H]3[C@H](CC[C@]12C)[C@@]1(C)CC[C@H](O)[C@H](O)[C@@H]1CC3(F)F (single isomer, unassigned) [Compound 273, (1R,3aS,3bS,5aR,6R,7S,9aR,9bS,11aR)-4,4-difluoro-1-[(2R,6S)-6-hydroxy-6-(1H-indazol-4-yl)hexan-2-yl]-9a,11a-dimethylhexadecahydro-1H-cyclopenta[1,2-a]phenanthrene-6,7-diol or (1R,3aS,3bS,5aR,6R,7S,9aR,9bS,11aR)-4,4-difluoro-1-[(2R,6R)-6-hydroxy-6-(1H-indazol-4-yl)hexan-2-yl]-9a,11a-dimethylhexadecahydro-1H-cyclopenta[1,2-a]phenanthrene-6,7-diol]",–,0.361 µM
"C[C@H](CCC[C@H](O)c1cc2ccccc2o1)[C@H]1CC[C@H]2[C@H]3[C@H](CC[C@]12C)[C@@]1(C)CC[C@H](O)[C@H](O)[C@@H]1CC3(F)F [Compound 321, (1R,3aS,3bS,5aR,6R,7S,9aR,9bS,11aR)-1-[(2R,6S)-6-(1-benzofuran-2-yl)-6-hydroxyhexan-2-yl]-4,4-difluoro-9a,11a-dimethylhexadecahydro-1H-cyclopenta[1,2-a]phenanthrene-6,7-diol]",–,0.114 µM
"C[C@H](CCC[C@H](O)c1cccc2cnn(C)c12)[C@H]1CC[C@H]2C3=C(F)C[C@H]4[C@@H](O)[C@@H](O)CC[C@]4(C)[C@H]3CC[C@]12C (single isomer, unassigned) [Compound 245]",0.159 µM,–
"COc1cccc(F)c1[C@H](F)CCC[C@@H](C)[C@H]1CC[C@H]2[C@H]3[C@H](CC[C@]12C)[C@@]1(C)CC[C@H](O)[C@H](O)[C@@H]1CC3(F)F (single isomer, unassigned) [Compound 216]",2.65 µM,–
"COc1cc(F)ccc1/C(CCC[C@@H](C)[C@H]1CC[C@H]2[C@H]3[C@H](CC[C@]12C)[C@@]1(C)CC[C@H](O)[C@H](O)[C@@H]1CC3(F)F)=N/O [Compound 157, [(1E,5R)-5-[(1R,3aS,3bS,5aR,6R,7S,9aR,9bS,11aR)-4,4-difluoro-6,7-dihydroxy-9a,11a-dimethylhexadecahydro-1H-cyclopenta[1,2-a]phenanthren-1-yl]-1-(4-fluoro-2-methoxyphenyl)hexylidene]hydroxylamine]",0.053 µM,–
"COc1nc(F)ccc1[C@](C)(O)CCC[C@@H](C)[C@H]1CC[C@H]2[C@H]3[C@H](CC[C@]12C)[C@@]1(C)CC[C@H](O)[C@H](O)[C@@H]1CC3(F)F [Compound 310, (1R,3aS,3bS,5aR,6R,7S,9aR,9bS,11aR)-4,4-difluoro-1-[(2R,6R)-6-(6-fluoro-2-methoxypyridin-3-yl)-6-hydroxyheptan-2-yl]-9a,11a-dimethylhexadecahydro-1H-cyclopenta[1,2-a]phenanthrene-6,7-diol]",0.209 µM,–
"C[C@H](CCC[C@@H](O)c1cccc2cnn(C)c12)[C@H]1CC[C@H]2C3=C(F)C[C@H]4[C@@H](O)[C@@H](O)CC[C@]4(C)[C@H]3CC[C@]12C (single isomer, unassigned) [Compound 246]",0.139 µM,–
"COc1cc(Cl)ccc1[C@@H](O)CCC[C@@H](C)[C@H]1CC[C@H]2C3=C(F)C[C@H]4[C@@H](O)[C@@H](O)CC[C@]4(C)[C@H]3CC[C@]12C [Compound 111, (1R,3aR,5aR,6R,7S,9aR,9bR,11aR)-1-[(2R,6S)-6-(4-chloro-2-methoxyphenyl)-6-hydroxyhexan-2-yl]-4-fluoro-9a,11a-dimethyl-2,3,3a,5,5a,6,7,8,9,9a,9b,10,11,11a-tetradecahydro-1H-cyclopenta[1,2-a]phenanthrene-6,7-diol]",1.48 µM,–
"C[C@H](CCC(O)c1ccc(F)nc1OC1CC1)[C@H]1CC[C@H]2[C@H]3[C@H](CC[C@]12C)[C@@]1(C)CC[C@H](O)[C@H](O)[C@@H]1CC3(F)F (stereo partly drawn) [Compound 382, (1R,3aS,3bS,5aR,6R,7S,9aR,9bS,11aR)-1-[(2R)-5-[2-(cyclopropyloxy)-6-fluoropyridin-3-yl]-5-hydroxypentan-2-yl]-4,4-difluoro-9a,11a-dimethylhexadecahydro-1H-cyclopenta[1,2-a]phenanthrene-6,7-diol]",0.057 µM,–
"C[C@H](CCCC(O)c1nc2c(s1)CCOC2)[C@H]1CC[C@H]2[C@H]3[C@H](CC[C@]12C)[C@@]1(C)CC[C@H](O)[C@H](O)[C@@H]1CC3(F)F (stereo partly drawn) [Compound 257, (1R,3aS,3bS,5aR,6R,7 S,9aR,9bS,11aR)-1-[(2R)-6-(6,7-Dihydro-4H-pyrano[3,4-d][1,3]thiazol-2-yl)-6-hydroxyhexan-2-yl]-4,4-difluoro-9a,11a-dimethylhexadecahyd ro-1H-cyclopenta[1,2-a]phenanthrene-6,7-diol]",0.154 µM,–
"C[C@H](CCCC(O)c1c(F)cccc1F)[C@H]1CC[C@H]2[C@H]3[C@H](CC[C@]12C)[C@@]1(C)CC[C@H](O)[C@H](O)[C@@H]1CC3(F)F (stereo partly drawn) [Compound 161, (1R,3aS,3bS,5aR,6R,7 S,9aR,9bS,11aR)-1-[(2R)-6-(2,6-Difluorophenyl)-6-hydroxyhexan-2-yl]-4,4-difluoro-9a,11a-dimethylhexadecahyd ro-1H-cyclopenta[1,2-a]phenanthrene-6,7-diol]",0.1 µM,–
"COc1cccc(F)c1C(O)CCCC(C)C1CCC2C3=C(F)CC4C(O)C(O)CCC4(C)C3CCC21C (single isomer, unassigned) [Compound 164]",–,0.295 µM
"COc1c(C(O)CCC[C@@H](C)[C@H]2CC[C@H]3[C@H]4[C@H](CC[C@]23C)[C@@]2(C)CC[C@H](O)[C@H](O)[C@@H]2CC4(F)F)ccc[n+]1[O-] (stereo partly drawn) [Compound 267, 3-[(5R)-5-[(1R,3aS,3bS,5aR,6R,7S,9aR,9bS,11aR)-4,4-difluoro-6,7-dihydroxy-9a,11a-dimethylhexadecahydro-1H-cyclopenta[1,2-a]phenanthren-1-yl]-1-hydroxyhexyl]-2-methoxypyridine-1-oxide]",0.424 µM,–
"C[C@H](CCCC(O)c1cccc2[nH]ncc12)[C@H]1CC[C@H]2[C@H]3[C@H](CC[C@]12C)[C@@]1(C)CC[C@H](O)[C@H](O)[C@@H]1CC3(F)F (single isomer, unassigned) [Compound 274, (1R,3aS,3bS,5aR,6R,7S,9aR,9bS,11aR)-4,4-difluoro-1-[(2R,6R)-6-hydroxy-6-(1H-indazol-4-yl)hexan-2-yl]-9a,11a-dimethylhexadecahydro-1H-cyclopenta[1,2-a]phenanthrene-6,7-diol or (1R,3aS,3bS,5aR,6R,7S,9aR,9bS,11aR)-4,4-difluoro-1-[(2R,6S)-6-hydroxy-6-(1H-indazol-4-yl)hexan-2-yl]-9a,11a-dimethylhexadecahydro-1H-cyclopenta[1,2-a]phenanthrene-6,7-diol]",–,0.758 µM
"C[C@H](CCCC(O)c1ncco1)[C@H]1CC[C@H]2[C@H]3[C@H](CC[C@]12C)[C@@]1(C)CC[C@H](O)[C@H](O)[C@@H]1CC3(F)F (stereo partly drawn) [Compound 99, (1R,3aS,3bS,5aR,6R,7S,9aR,9bS,11aR)-4,4-difluoro-1-[(2R)-6-hydroxy-6-(1,3-oxazol-2-yl)hexan-2-yl]-9a,11a-dimethylhexadecahydro-1H-cyclopenta[1,2-a]phenanthrene-6,7-diol]",0.243 µM,–
"COc1cc(F)c([C@@H](O)CCC[C@@H](C)[C@H]2CC[C@H]3[C@H]4[C@H](CC[C@]23C)[C@@]2(C)CC[C@H](O)[C@H](O)[C@@H]2CC4(F)F)c(F)n1 (single isomer, unassigned) [Compound 238]",0.289 µM,–
"C[C@H](CCCC(O)c1cnc2c(c1)OC(F)(F)O2)[C@H]1CC[C@H]2[C@H]3[C@H](CC[C@]12C)[C@@]1(C)CC[C@H](O)[C@H](O)[C@@H]1CC3(F)F (stereo partly drawn) [Compound 284, (1R,3aS,3bS,5aR,6R,7 S,9aR,9bS,11aR)-1-[(2R)-6-(2,2-Difluoro[1,3]dioxolo[4,5-b]pyridin-6-yl)-6-hydroxyhexan-2-yl]-4,4-difluoro-9a,11a-dimethylhexadecahydro-1H-cyclopenta[1,2-a]phenanthrene-6,7-diol]",0.309 µM,–
"C[C@H](CCCC(O)c1ccc2c(c1)OC(F)(F)O2)[C@H]1CC[C@H]2[C@H]3[C@H](CC[C@]12C)[C@@]1(C)CC[C@H](O)[C@H](O)[C@@H]1CC3(F)F (single isomer, unassigned) [Compound 259, (1R,3aS,3bS,5aR,6R,7S,9aR,9bS,11aR)-1-[(2R,6R)-6-(2,2-difluorobenzo[d][1,3]dioxol-5-yl)-6-hydroxyhexan-2-yl]-4,4-difluoro-9a,11a-dimethylhexadecahydro-1H-cyclopenta[1,2-a]phenanthrene-6,7-diol or (1R,3aS,3bS,5aR,6R,7S,9aR,9bS,11aR)-1-[(2R,6S)-6-(2,2-difluorobenzo[d][1,3]dioxol-5-yl)-6-hydroxyhexan-2-yl]-4,4-difluoro-9a,11a-dimethylhexadecahydro-1H-cyclopenta[1,2-a]phenanthrene-6,7-diol]",–,0.249 µM
"COc1cccc(F)c1C(O)CCCC(C)C1CCC2C3=C(F)CC4C(O)C(O)CCC4(C)C3CCC21C (single isomer, unassigned) [Compound 163]",0.201 µM,–
